Measurements reported in patent US20200354562A1, “FILMS AND COMPOSITES AND METHODS OF PRODUCTION AND USE” (Texas Tech University System, priority 2018, published 2020).

Assays:
[1] = 24° C.; cited from earlier work
[2] = Flow rheometry test of PCL-PVAc-PEG/Vitamin E composites; format: physicochemical; details: flow mode, 20±1° C., shear stress 0.60 to 59.68 Pa
Procedure: Rheological Characterization. […] The viscoelastic properties of the composites were evaluated by measuring their shear rate under an applied shear stress. The viscous response, or the loss modulus, is the loss of the rigid structure of the system as a result of the applied stress over strain (G″). The recovery of the polymeric dispersions when lifting the applied stress is known as the elastic (G′) or storage modulus. Tangent of the phase angle (tan δ) is the ratio of the viscous property of the dispersion (G″) to its elastic property (G′). Tan δ is a measure of the relative contribution of the viscous component to the solid characteristics of the material. Materials behave increasingly like a liquid as the tan δ value increases above 1, whereas they behave increasingly like a gel as the tan δ value decreases below 1 [13].
The characterization of the rheological properties of vitamin E and PCL-PVAc-PEG/Vitamin E composites was carried out with an Advanced AR 2000 controlled stress/controlled rate rheometer (TA Instruments, New Castle, Del., USA) with a 2o, 40 mm cone-plate geometry and a 61 μm gap between the plates. Approximately 0.6 mL of each sample was carefully placed on the lower plate. […]
Flow Rheometry Test. The flow behavior and complex viscosity (η) of the PCL-PVAc-PEG/Vitamin E composites were measured in flow mode at 20±1° C. under an applied shear stress from 0.60 to 59.68 Pa. […]

[3] = Texture analysis of PCL-PVAc-PEG/Vitamin E composites (hardness, adhesiveness, cohesiveness); format: physicochemical; details: probe compression 2 mm/s to 4 mm depth, 20±1° C.
Procedure: Texture Analysis. Texture analysis is a technique that has been widely utilized for the mechanical characterization of food and pharmaceutical products. The mechanical characteristics of the PCL-PVAc-PEG/Vitamin E composites were determined by using a TA-XT plus texture analyzer (Texture Technologies Corp and Stable Micro Systems, Ltd, Scarsdale, N.Y., USA) equipped with a 50 kg load cell and fitted with a 35 mm flat-faced stainless-steel cylindrical probe. Briefly, 10 g sample of each composite was placed in a 25 mL jacketed reaction beaker. Before analysis, air bubbles were removed from the samples by maintaining the reaction beaker at 80° C. for approximately 30 minutes. Samples were then allowed to equilibrate to room temperature for 24 h. After equilibration, samples were tested for their texture properties by compressing the probe into the surface of each sample at a rate of 2 mm/s to a depth of 4 mm, after which the probe was retracted at a rate of 2 mm/s. Composite Hardness, adhesiveness, and cohesiveness were then estimated from the generated force-time plots. At least three replicate analyses were carried out for each composite using a freshly prepared sample. Data collection and calculation were determined by the Texture Exponent 6.1.7.0 software package.
Texture Analysis. Texture profile analysis (TPA) of the PCL-PVAc-PEG/Vitamin E composites was carried out to study their compressional flow properties. It provided valuable information about the impact of PCL-PVAc-PEG load on the hardness, adhesiveness, and cohesiveness of the composites (FIG. 9). These characteristics quantify sample deformation under compression. Hardness describes the stress/work required to remove the sample from the container and to subsequently apply it to the site of application. It is defined as the force required to acquire a given deformation which is the same as the maximum peak force during compression. Hardness should be low in order to allow the material to be easily removed from the container. […]

For `Cc1c(C)c2c(c(C)c1O)CCC(C)(CCCC(C)CCCC(C)CCCC(C)C)O2` (racemic) [pure vitamin E, DL-α-Tocopherol], the reported viscosity [1] is given as 2480 centipoise, the Viscosity [2] is given as 5.9 Pa·s and the Adhesiveness [3] is given as 0.01 kg·s. It also gave a Cohesiveness [3] of 0.02 kg·s and a Hardness [3] of 0.021 kg.
